Consider two molecules from ChEMBL document CHEMBL1123834, “Isozyme-specific enzyme inhibitors. 14. 5'(R)-C-[(L-homocystein-S-yl)methyl]adenosine 5'-(beta,gamma-imidotriphosphate), a potent inhibitor of rat methionine adenosyltransferases” (J Med Chem, 1987).

Common to all, as to assay type: protein assay
The target in assay [1] is T1, S-adenosylmethionine synthetase (MAT 1 and MAT 2) (Rattus norvegicus, UniProt P13444+P18298). The assay can be described thus: Inhibition constants of M-2 Forms of rat methionine adenosyltransferase using Methionine as the variable substrate; Inhibition is competitive type.
Assay [2] has as its target T1, S-adenosylmethionine synthetase (MAT 1 and MAT 2). Description: Inhibition constants of MT Forms of rat Novikoff Ascitic Hepatomae using ATP as the variable substrate; Inhibition is competitive type.
For assay [3] the target is unchanged. Description: Inhibition constants of MT Forms of rat Novikoff Ascitic Hepatomae using Methionine as the variable substrate; Inhibition is non competitive inhibition.
For assay [4] the target is unchanged. Description: Inhibition constants of M-2 Forms of rat methionine adenosyltransferase using ATP as the variable substrate; Inhibition is competitive type.
Assay [5] shares this target. Description: Inhibition constants of MT Forms of rat Novikoff Ascitic Hepatomae using Methionine as the variable substrate; Inhibition is non competitive type.
Assay [6] shares this target. Description: Inhibition constants of M-2 Forms of rat methionine adenosyltransferase using Methionine as the variable substrate; Inhibition is non competitive type.

On to `NC(CCSC(CP(=O)(O)OP(=O)(O)NP(=O)(O)O)[C@H]1O[C@@H](n2cnc3c2NC=NC3N)[C@H](O)[C@@H]1O)C(=O)O` (stereo partly drawn), for which the inhibition constant Ki is 26 µM in assay [1], 11 µM in assay [2], 38 µM in assay [3] and 16 µM in assay [4].
For `NC(CCS[C@@H](CNP(=O)(O)OP(=O)(O)OP(=O)(O)O)[C@H]1OC(n2cnc3c2NC=NC3N)[C@H](O)[C@@H]1O)C(=O)O` (stereo partly drawn), the inhibition constant (Ki) in assay [2] came to 0.27 µM; in assay [5], 2.3 µM; in assay [6] it was 3 µM; in assay [4], 0.36 µM.
